Holding throughout (conditions): at 10 µM
One test has as its target Misshapen-like kinase 1 (Homo sapiens, UniProt Q8N4C8). Kind of test: Selectivity interaction (KinomeScan (DiscoverX)) EUB0000595a MINK1.
Test [1] concerns the target Dual specificity tyrosine-phosphorylation-regulated kinase 1A (Homo sapiens, UniProt Q13627). Put plainly: Selectivity interaction (KinomeScan (DiscoverX)) EUB0000666a DYRK1A.
Test [2] concerns the target Dual specificity protein kinase CLK4 (Homo sapiens, UniProt Q9HAZ1). Kind of test: Selectivity interaction (KinomeScan (DiscoverX)) EUB0000607a CLK4.
Test [3] deals with T1, Receptor-type tyrosine-protein kinase FLT3 (Homo sapiens), P36888 [D835Y].
T1 sequence (whole entry): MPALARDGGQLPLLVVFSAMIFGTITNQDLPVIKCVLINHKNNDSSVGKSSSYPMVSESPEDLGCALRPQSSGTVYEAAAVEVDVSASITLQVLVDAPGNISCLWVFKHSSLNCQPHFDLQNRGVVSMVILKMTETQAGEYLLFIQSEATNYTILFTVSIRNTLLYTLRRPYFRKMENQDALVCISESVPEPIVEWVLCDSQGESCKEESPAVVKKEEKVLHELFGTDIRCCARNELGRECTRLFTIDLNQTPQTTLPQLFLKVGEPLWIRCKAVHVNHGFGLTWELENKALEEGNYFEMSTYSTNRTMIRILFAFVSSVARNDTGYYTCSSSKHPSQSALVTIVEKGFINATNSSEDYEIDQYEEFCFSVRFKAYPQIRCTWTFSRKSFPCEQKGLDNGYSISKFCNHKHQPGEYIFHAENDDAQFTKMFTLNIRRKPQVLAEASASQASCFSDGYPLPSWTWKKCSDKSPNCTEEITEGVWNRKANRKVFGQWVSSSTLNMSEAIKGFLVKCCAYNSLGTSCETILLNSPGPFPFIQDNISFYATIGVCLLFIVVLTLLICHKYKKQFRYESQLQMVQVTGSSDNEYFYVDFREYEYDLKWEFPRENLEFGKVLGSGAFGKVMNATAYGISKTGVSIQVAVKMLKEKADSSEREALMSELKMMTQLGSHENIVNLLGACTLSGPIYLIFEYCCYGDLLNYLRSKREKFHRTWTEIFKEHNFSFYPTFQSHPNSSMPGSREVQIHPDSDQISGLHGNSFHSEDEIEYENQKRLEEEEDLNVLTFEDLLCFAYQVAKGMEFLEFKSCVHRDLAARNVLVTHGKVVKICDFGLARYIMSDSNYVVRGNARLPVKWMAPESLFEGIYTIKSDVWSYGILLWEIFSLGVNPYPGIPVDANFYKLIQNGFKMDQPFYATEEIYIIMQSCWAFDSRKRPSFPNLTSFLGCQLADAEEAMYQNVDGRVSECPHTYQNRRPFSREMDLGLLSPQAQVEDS
Kind of test: (§1) Selectivity interaction (KinomeScan (DiscoverX)) EUB0000618a FLT3.

Test [4] deals with T2, Receptor-type tyrosine-protein kinase FLT3 (Homo sapiens), P36888 [R834Q].
T2 sequence (whole entry): T1 sequence (whole entry) with R834Q, Y835D
The description is as §1.

The target in test [5] is T3, Mitogen-activated protein kinase 15 (Homo sapiens) (UniProt Q8TD08).
T3 sequence (whole entry): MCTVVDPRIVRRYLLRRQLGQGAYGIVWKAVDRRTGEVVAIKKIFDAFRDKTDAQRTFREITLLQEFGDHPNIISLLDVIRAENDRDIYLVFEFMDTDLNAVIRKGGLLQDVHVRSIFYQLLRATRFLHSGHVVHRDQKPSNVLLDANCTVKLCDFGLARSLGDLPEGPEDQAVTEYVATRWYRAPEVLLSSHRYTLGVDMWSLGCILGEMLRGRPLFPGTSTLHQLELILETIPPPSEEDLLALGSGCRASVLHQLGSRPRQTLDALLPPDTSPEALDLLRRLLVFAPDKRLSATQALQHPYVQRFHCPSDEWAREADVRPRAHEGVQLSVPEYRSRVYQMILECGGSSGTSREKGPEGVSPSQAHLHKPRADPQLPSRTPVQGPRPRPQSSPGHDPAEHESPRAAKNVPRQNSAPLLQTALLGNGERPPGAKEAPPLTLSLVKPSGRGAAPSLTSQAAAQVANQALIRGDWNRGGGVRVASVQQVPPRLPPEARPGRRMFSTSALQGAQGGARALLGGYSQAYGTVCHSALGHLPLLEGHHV
Kind of test: Selectivity interaction (KinomeScan (DiscoverX)) EUB0000229b MAPK15.

Structures are written as SMILES. Positions count from the first letter of the chain named.

Sequence of Misshapen-like kinase 1 (Q8N4C8 whole entry, looked up): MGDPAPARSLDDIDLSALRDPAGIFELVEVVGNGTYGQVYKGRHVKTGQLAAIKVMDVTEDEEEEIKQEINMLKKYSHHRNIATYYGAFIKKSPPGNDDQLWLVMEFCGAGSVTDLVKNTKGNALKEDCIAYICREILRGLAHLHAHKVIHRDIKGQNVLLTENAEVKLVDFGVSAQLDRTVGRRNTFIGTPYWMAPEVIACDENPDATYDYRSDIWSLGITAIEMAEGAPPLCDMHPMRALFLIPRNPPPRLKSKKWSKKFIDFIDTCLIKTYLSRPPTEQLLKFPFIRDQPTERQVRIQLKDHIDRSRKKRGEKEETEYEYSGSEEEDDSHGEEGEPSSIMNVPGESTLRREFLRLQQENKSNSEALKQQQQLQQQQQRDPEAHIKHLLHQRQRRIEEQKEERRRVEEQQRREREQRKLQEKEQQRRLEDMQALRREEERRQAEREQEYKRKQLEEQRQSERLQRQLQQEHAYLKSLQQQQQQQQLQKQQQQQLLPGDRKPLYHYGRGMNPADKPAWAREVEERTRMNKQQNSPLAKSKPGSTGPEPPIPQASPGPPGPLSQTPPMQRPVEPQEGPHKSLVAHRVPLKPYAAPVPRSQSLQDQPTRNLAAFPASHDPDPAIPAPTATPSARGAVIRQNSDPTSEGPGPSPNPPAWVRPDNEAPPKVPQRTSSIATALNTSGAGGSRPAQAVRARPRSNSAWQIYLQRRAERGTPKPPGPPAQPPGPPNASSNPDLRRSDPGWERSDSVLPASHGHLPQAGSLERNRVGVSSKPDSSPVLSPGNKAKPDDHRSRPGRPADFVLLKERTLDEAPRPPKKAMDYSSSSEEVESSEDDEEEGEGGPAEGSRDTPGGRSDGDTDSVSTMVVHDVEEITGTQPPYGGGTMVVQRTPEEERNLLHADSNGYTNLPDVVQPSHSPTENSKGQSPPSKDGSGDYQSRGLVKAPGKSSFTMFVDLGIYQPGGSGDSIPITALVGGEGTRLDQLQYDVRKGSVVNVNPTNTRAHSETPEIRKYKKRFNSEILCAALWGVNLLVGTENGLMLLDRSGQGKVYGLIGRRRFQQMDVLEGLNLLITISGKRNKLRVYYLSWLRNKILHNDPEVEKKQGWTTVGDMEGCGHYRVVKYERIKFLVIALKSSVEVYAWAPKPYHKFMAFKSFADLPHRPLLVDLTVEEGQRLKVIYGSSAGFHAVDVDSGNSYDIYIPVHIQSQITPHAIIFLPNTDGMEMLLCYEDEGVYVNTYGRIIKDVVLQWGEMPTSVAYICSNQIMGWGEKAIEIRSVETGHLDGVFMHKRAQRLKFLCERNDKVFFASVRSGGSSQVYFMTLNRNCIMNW
Sequence of Dual specificity protein kinase CLK4 (Q9HAZ1 whole entry, looked up): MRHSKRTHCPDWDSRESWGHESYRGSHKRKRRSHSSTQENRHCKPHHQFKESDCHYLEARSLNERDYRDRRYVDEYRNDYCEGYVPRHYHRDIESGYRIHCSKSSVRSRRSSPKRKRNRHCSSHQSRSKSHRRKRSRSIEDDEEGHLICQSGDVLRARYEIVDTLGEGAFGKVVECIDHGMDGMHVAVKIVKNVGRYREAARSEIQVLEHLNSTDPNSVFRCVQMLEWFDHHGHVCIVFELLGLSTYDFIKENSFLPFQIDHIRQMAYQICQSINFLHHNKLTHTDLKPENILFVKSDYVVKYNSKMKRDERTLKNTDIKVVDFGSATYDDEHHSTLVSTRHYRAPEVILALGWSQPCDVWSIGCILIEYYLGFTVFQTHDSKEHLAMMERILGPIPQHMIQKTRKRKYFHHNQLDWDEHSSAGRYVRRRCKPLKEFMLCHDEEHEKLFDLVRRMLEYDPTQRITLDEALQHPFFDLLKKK

With `COCC(=O)NC/C=C/c1ccc2ncnc(Nc3ccc(Oc4ccc(C)nc4)c(C)c3)c2c1` [CP-724714], the % of control on Misshapen-like kinase 1 worked out at 77%. `O=C(NOC[C@H](O)CO)c1ccc(F)c(F)c1Nc1ccc(I)cc1F` gave a % of control in test [1] of 100%. In test [2], `CNC(=O)Nc1ccc(-c2nc(N3CC4CCC(C3)O4)c3cnn(C4CCC5(CC4)OCCO5)c3n2)cc1` had a % of control of 88%.

In the case of `O[C@H]1CC[C@H](Nc2ncc3nc(Nc4c(F)cc(F)cc4F)n([C@H]4CCOC4)c3n2)CC1`, the % of control came out at 100% in test [3] and 91% in test [4]. Compound `COc1cc(N(C)c2ccnc3ccc(C(F)(F)F)cc23)cc(OC)c1OC` came in with a % binding in test [5] of 100%.

For the origin of these results see ChEMBL document CHEMBL5465560, “Selectivity Literature for EUbOPEN Chemogenomic Library” (2024).
